This is an account of results in patent US20090130098A1, “Specific therapy using integrin ligands for treating cancer” (Merck Patent GmbH, priority 2006, published 2009).

SMILES strings stand for the structures.

For data set [1], the system named is newly diagnosed glioblastoma (GBM). The data set is described as follows: Phase I/IIa trial of cilengitide with temozolomide and radiotherapy in newly diagnosed glioblastoma. It counts as in vivo, human. Conditions: cilengitide 500 mg + TMZ/RT. Here is the method:
Purpose: To evaluate safety, toxicity, and efficacy of the combination of the cyclic RGD pentapeptide Cilengitide (=cyclo-(Arg-Gly-Asp-DPhe-NMe-Val)), an inhibitor of integrins αvβ3 and αvβ5, in addition to standard temozolomide (TMZ) and radiotherapy (RT).
Patients and methods: Fifty-two pts (PS 0-1: 92%, 2: 8%; median age 57 yrs) after biopsy (n= 9/17%) or tumor resection (n= 43/83%) were treated with standard TMZ/RT (Stupp et al. NEJM 2005). In addition Cilengitide (500 mg i.v., 2×/week) was started one week before TMZ/RT and given throughout for the duration of chemotherapy or until progression. Primary endpoint was progression free survival rate at 6 months (target: 65%). Patients were followed with MRI every 2 months. Histopathologic diagnosis and MRI imaging were independently reviewed, MGMT promotor methylation status was assessed in 45 (86.5%) pts.

Data set [2] deals with recurrent glioblastoma (GBM). Put plainly: Phase IIa trial of cilengitide single agent therapy in recurrent glioblastoma. It counts as in vivo, human. Here is the method: Background: The present phase IIa study was designed to evaluate the safety, toxicity, and clinical activity of the cyclic RGD pentapeptide cilengitide ((=cyclo-(Arg-Gly-Asp-DPhe-NMe-Val)), an inhibitor of integrins αvβ3 and αvβ5, as a single agent at doses of 500 and 2000 mg in patients (pts) with recurrent glioblastoma (GBM).
Methods: In this multicenter, open-label, randomized, uncontrolled study, pts with GBM and measurable disease that had relapsed after previous therapy with temozolomide and radiotherapy were randomized to receive cilengitide at doses of either 500 mg or 2000 mg i.v., 2×/week, until progression. Histopathology diagnosis and MRI imaging were subject to independent blinded review. The primary endpoint was Progression Free Survival (PFS) at 6 months (mths). Secondary endpoints included response, survival, time to disease progression, safety, tolerability and pharmacokinetics.

For data set [3], the system named is various brain tumors. Conditions: human, in vivo; cited from earlier work.

`CC(C)[C@H]1C(=O)N[C@@H](CCCN=C(N)N)C(=O)NCC(=O)N[C@@H](CC(=O)O)C(=O)N[C@H](Cc2ccccc2)C(=O)N1C` [cilengitide, cyclo-(Arg-Gly-Asp-DPhe-NMeVal)]: in data set [1], the “non-hematologic grade 3: constitutional symptoms (asthenia, fatigue, anorexia)” value is recorded as 3 n; the “non-hematologic grade 3: deep venous thrombosis and pulmonary embolism” value turned out to be 1 n; the “non-hematologic grade 3: elevated liver function tests” value worked out at 1 n. For the same compound, the “sigmoid perforation (grade 2)” value in data set [1] (patient with history of sigmoid diverticulosis) is given as “One patient”. Moreover, the “pts who received 12 or more cycles of therapy” value in data set [2] (500 mg) is 4 pts. The “pts who received 12 or more cycles of therapy” value in data set [2] (2000 mg) is listed as 6 pts. The “tumor control, 2000 mg vs 500 mg” value in data set [2] (2000 mg 2x/week, not statistically significant) is on record as “trend towards better tumor control”. In data set [2] (at 500 mg), the “Treatment related NCI CTC grade 3 AE: arthralgia/myalgia” value is recorded as 1 patient and the “Treatment related NCI CTC grade 3 AE: elevated liver enzymes” value is given as 1 patient. The “Treatment related NCI CTC grade 3 AE: weight increase/edema” value in data set [2] (at 2000 mg) amounted to 1 patient. Moreover, the “single agent activity in recurrent glioblastoma” value in data set [2] (in vivo) is reported as “advantageous single agent activity”. In addition, in data set [3], the MTD entry is “no known MTD”.
